Source: patent US20260265233A1, “BENZOTHIOPHENE DERIVATIVES AS RXFP1 AGONISTS” (BRISTOL-MYERS SQUIBB COMPANY, priority 2021, published 2026)

Molecular target: T1, human RXFP1 (Homo sapiens, UniProt Q9HBX9)
T1 construct: expressed in transfected cells
T1 sequence (Q9HBX9 1-757): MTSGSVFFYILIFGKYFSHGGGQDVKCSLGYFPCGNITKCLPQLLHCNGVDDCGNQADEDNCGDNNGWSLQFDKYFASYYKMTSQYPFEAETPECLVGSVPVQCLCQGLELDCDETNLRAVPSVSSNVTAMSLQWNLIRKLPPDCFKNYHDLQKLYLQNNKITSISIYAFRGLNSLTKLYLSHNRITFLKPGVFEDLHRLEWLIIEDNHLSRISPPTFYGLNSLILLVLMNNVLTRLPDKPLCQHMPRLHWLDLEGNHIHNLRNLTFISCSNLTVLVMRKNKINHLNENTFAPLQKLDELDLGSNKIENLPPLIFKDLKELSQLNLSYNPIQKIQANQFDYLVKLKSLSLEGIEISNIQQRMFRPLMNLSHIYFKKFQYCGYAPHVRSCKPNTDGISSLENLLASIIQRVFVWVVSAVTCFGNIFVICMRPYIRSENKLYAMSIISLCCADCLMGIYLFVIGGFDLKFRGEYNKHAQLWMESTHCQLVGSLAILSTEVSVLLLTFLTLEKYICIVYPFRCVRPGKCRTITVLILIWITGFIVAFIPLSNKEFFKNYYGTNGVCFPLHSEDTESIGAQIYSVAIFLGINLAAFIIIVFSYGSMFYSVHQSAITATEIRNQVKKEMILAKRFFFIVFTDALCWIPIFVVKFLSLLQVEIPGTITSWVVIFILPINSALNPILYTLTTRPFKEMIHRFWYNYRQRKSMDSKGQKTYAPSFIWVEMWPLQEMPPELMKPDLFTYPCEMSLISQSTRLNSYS
Test: hRXFP1 HEK293 cAMP assay (HTRF)
Type: cell-based
Settings: HEK293 cells stably expressing human RXFP1; 30 min at rt; intracellular cAMP by HTRF
How it was run: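 Agonism is measured as cAMP by HTRF, quantified from a standard curve via the 665/590 nm ratio and fitted with a four-parameter logistic equation. Compounds (0.010 nM to 50 μM final, 2% DMSO) were applied for 30 min at rt to human RXFP1-expressing HEK293 cells in assay buffer containing 0.5 mM IBMX.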

| Structure (SMILES) | EC50 [µM] |
| --- | --- |
| COc1ccc(C(=O)N2CC[C@@H](O)C2)cc1C(=O)Nc1c(C(=O)Nc2ccc(F)c(C(F)(F)F)c2)sc2cc(C3CC3)ncc12 [Example 195, (R)-6-cyclopropyl-N-(4-fluoro-3-(trifluoromethyl)phenyl)-3-(5-(3-hydroxy-pyrrolidine-1-carbonyl)-2-methoxy-benzamido) thieno[3,2-c] pyridine-2-carboxamide] | 0.91 |
| COc1ccc(C(=O)NCC2(S(C)(=O)=O)CC2)cc1C(=O)Nc1c(C(=O)Nc2ccc(F)c(C(F)(F)F)c2)sc2cc(Cl)ncc12 [Example 196, N3-(6-chloro-2-((4-fluoro-3-(trifluoromethyl)phenyl)carbamoyl)thieno[3,2-c]pyridin-3-yl)-4-methoxy-N1-((1-(methylsulfonyl)cyclopropyl)methyl) isophthalamide] | 0.07 |
| COc1ccc(C(=O)NCCS(C)(=O)=O)cc1C(=O)Nc1c(C(=O)Nc2ccc(F)c(C(F)(F)F)c2)sc2cc(Cl)ncc12 [Example 197, N3-(6-chloro-2-((4-fluoro-3-(trifluoromethyl)phenyl)carbamoyl)thieno[3,2-c]pyridin-3-yl)-4-methoxy-N1-(2-(methylsulfonyl)ethyl) isophthalamide] | 0.45 |
| COc1ccc(C(=O)N2CC[C@@H](O)C2)cc1C(=O)Nc1c(C(=O)Nc2ccc(F)c(C(F)(F)F)c2)sc2cc(Cl)ncc12 [Example 199, (R)-6-chloro-N-(4-fluoro-3-(trifluoromethyl)phenyl)-3-(5-(3-hydroxypyrrolidine-1-carbonyl)-2-methoxy-benzamido) thieno[3,2-c]pyridine-2-carboxamide] | 0.69 |
| COc1ccc(CCCO)cc1C(=O)Nc1c(C(=O)Nc2ccc(F)c(C(F)(F)F)c2)sc2cc(Cl)ncc12 [Example 200, 6-chloro-N-(4-fluoro-3-(trifluoromethyl)phenyl)-3-(5-(3-hydroxypropyl)-2-methoxy-benzamido) thieno[3,2-c]pyridine-2-carboxamide] | 0.4 |
| COc1ccc(-c2cc(C(=O)O)ccc2F)cc1C(=O)Nc1c(C(=O)Nc2ccc(F)c(C(F)(F)F)c2)sc2cc(Cl)ncc12 [Example 201, 3′-((6-chloro-2-((4-fluoro-3-(trifluoromethyl)phenyl)carbamoyl)thieno[3,2-c]pyridin-3-yl)carbamoyl)-6-fluoro-4′-methoxy-[1,1′-biphenyl]-3-carboxylic acid] | 0.32 |
| COc1ccc(C#CCO)cc1C(=O)Nc1c(C(=O)Nc2ccc(F)c(C(F)(F)F)c2)sc2cc(C3CC3)ncc12 [Example 202, 6-cyclopropyl-N-(4-fluoro-3-(trifluoromethyl)phenyl)-3-(5-(3-hydroxyprop-1-yn-1-yl)-2-methoxy-benzamido) thieno[3,2-c]pyridine-2-carboxamide] | 1.01 |
| COc1ccc(C(=O)NCC(C)(C)S(C)(=O)=O)cc1C(=O)Nc1c(C(=O)Nc2ccc(F)c(C(F)(F)F)c2)sc2cc(C(F)(F)F)ccc12 [Example 203, N3-(2-{[4-fluoro-3-(trifluoromethyl)phenyl]carbamoyl}-6-(trifluoromethyl)-1-benzothiophen-3-yl)-N1-(2-methanesulfonyl-2-methylpropyl)-4-methoxybenzene-1,3-dicarboxamide] | 0.0361 |
| COc1ccc(C2CC3(C2)CN(S(C)(=O)=O)C3)cc1C(=O)Nc1c(C(=O)Nc2ccc(F)c(C(F)(F)F)c2)sc2cc(C(F)(F)F)ccc12 [Example 204, N-(4-fluoro-3-(trifluoromethyl)phenyl)-3-(2-methoxy-5-(2-(methylsulfonyl)-2-azaspiro[3.3]heptan-6-yl)benzamido)-6-(trifluoromethyl) benzo[b] thiophene-2-carboxamide] | 1.17 |
| COc1ccc(C2CC3(C2)CN(CCS(C)(=O)=O)C3)cc1C(=O)Nc1c(C(=O)Nc2ccc(F)c(C(F)(F)F)c2)sc2cc(C(F)(F)F)ccc12 [Example 205, N-(4-fluoro-3-(trifluoromethyl)phenyl)-3-(2-methoxy-5-(2-(2-(methylsulfonyl)ethyl)-2-azaspiro[3.3]heptan-6-yl)benzamido)-6-(trifluoromethyl) benzo[b] thiophene-2-carboxamide] | 1.1 |
| COc1ccc(C2CC3(C2)CN(C(=O)CN(C)C)C3)cc1C(=O)Nc1c(C(=O)Nc2ccc(F)c(C(F)(F)F)c2)sc2cc(C(F)(F)F)ccc12 [Example 206, 3-(5-(2-(dimethylglycyl)-2-azaspiro[3.3]heptan-6-yl)-2-methoxy-benzamido)-N-(4-fluoro-3-(trifluoromethyl)phenyl)-6-(trifluoromethyl) benzo[b] thiophene-2-carboxamide] | 2.08 |
| COc1ccc(C2CC3(CNC3)C2)cc1C(=O)Nc1c(C(=O)Nc2ccc(F)c(C(F)(F)F)c2)sc2cc(C(F)(F)F)ccc12 [Example 207, N-(4-fluoro-3-(trifluoromethyl)phenyl)-3-(2-methoxy-5-(2-azaspiro[3.3]heptan-6-yl)benzamido)-6-(trifluoromethyl) benzo[b] thiophene-2-carboxamide] | 1.46 |
| COc1ccc(N2CCC3(C2)CN(C2COC2)C3)cc1C(=O)Nc1c(C(=O)Nc2ccc(F)c(C(F)(F)F)c2)sc2cc(C(F)(F)F)ccc12 [Example 208, N-(4-fluoro-3-(trifluoromethyl)phenyl)-3-(2-methoxy-5-(2-(oxetan-3-yl)-2,6-diazaspiro[3.4]octan-6-yl)benzamido)-6-(trifluoromethyl) benzo[b] thiophene-2-carboxamide] | 1.48 |
| COc1ccc(N2CCC[C@@H](NC(=O)CN(C)C)C2)cc1C(=O)Nc1c(C(=O)Nc2ccc(F)c(C(F)(F)F)c2)sc2cc(C(F)(F)F)ccc12 [Example 209, (R)-3-(5-(3-(2-(dimethylamino)acetamido)piperidin-1-yl)-2-methoxy-benzamido)-N-(4-fluoro-3-(trifluoromethyl)phenyl)-6-(trifluoromethyl) benzo[b] thiophene-2-carboxamide] | 1.48 |
| COc1ccc(-c2cnn(C)c2C(=O)O)cc1C(=O)Nc1c(C(=O)Nc2ccc(F)c(C(F)(F)F)c2)sc2cc(C(F)(F)F)ccc12 [Example 212, 4-(3-((2-((4-fluoro-3-(trifluoromethyl)phenyl)carbamoyl)-6-(trifluoromethyl)benzo[b]thiophen-3-yl)carbamoyl)-4-methoxyphenyl)-1-methyl-1H-pyrazole-5-carboxylic acid] | 3.33 |
| COc1ccc(C2CCCN(C(C)C)CC2)cc1C(=O)Nc1c(C(=O)Nc2ccc(F)c(C(F)(F)F)c2)sc2cc(C(F)(F)F)ccc12 (stereo not drawn) [Example 213, N-(4-fluoro-3-(trifluoromethyl)phenyl)-3-(5-(1-isopropylazepan-4-yl)-2-methoxy-benzamido)-6-(trifluoromethyl) benzo[b] thiophene-2-carboxamide] | 3.36 |
| COc1ccc(-c2cc(C(=O)O)ccc2F)cc1C(=O)Nc1c(C(=O)Nc2ccc(F)c(C(F)(F)F)c2)sc2ccc(C(F)(F)F)cc12 [Example 214, 6-fluoro-3′-((2-((4-fluoro-3-(trifluoromethyl)phenyl)carbamoyl)-5-(trifluoromethyl)benzo[b]thiophen-3-yl)carbamoyl)-4′-methoxy-[1,1′-biphenyl]-3-carboxylic acid] | 2.15 |
| COc1ccc(-c2cc(C(=O)O)ccc2F)cc1C(=O)Nc1c(C(=O)Nc2ccc(F)c(C(F)(F)F)c2)sc2cc(C)ccc12 [Example 215, 6-fluoro-3′-((2-((4-fluoro-3-(trifluoromethyl)phenyl)carbamoyl)-6-methylbenzo[b]thiophen-3-yl)carbamoyl)-4′-methoxy-[1,1′-biphenyl]-3-carboxylic acid] | 1.43 |
